Measurements taken from patent US20250290928A1, “METHOD, KIT AND DEVICE FOR DETECTING EXTRACELLULAR VESICLES” (priority 2022, published 2025).
Primed or numbered codes have the meaning given here. *: point of attachment. Dabcyl′ = 4-((4-(dimethylamino)phenyl)azo)benzoic acid, CN(C)c1ccc(/N=N/c2ccc(C(=O)*)cc2)cc1; 5FAM = O=C1OC2(c3ccc(O)cc3Oc3cc(O)ccc32)c2ccc(C(=O)*)cc21

Columns and labels:
[1] = system: ADAM in the MDA-MB-231-derived extracellular vesicles; assay: Detection of ADAM activity of MDA-MB-231-derived extracellular vesicles with 96-well plate; format: biochemical, Human; settings: Example 39, EV 3.3 μg/mL, reporter 5 μM, buffer (4)
Experimental: The MMP14 activity was evaluated with a 96-well plate (manufactured by Thermo Fisher Scientific Inc., model number: 137101). A fluorescence intensity was measured with a fluorescence plate reader (Synergy MX, manufactured by BioTek Instruments, Inc.) at […] every 5 min for 1 hour. For measurement wavelengths, an excitation wavelength of 485±20 nm and a fluorescence wavelength of 528±20 nm were used.
In addition, for detection of ADAM activity, 1 mM EPDAB010 or PEPDAB014 was diluted with the buffer (4) to prepare a 10 μM ADAM detection solution. In addition, for detection of Cathepsin D activity, 1 mM CathD was diluted with the buffer (4) to prepare a 10 μM Cathepsin D detection solution.
50 μL of the ADAM detection solution or the Cathepsin D detection solution was added to 50 μL of each of the samples, a reaction was performed at 30° C., and activity was evaluated.

[2] = system: ADAM in the MDA-MB-231-derived extracellular vesicles; assay: Digital detection of MDA-MB-231-derived extracellular vesicles through ADAM activity in wells; format: biochemical, Human; settings: for Extracellular vesicle concentration: at a concentration of x1, 50 fL; for Expected value λ / Number of positives / Positive ratio: Example 40, EV 2 μg/mL, reporter 5 μM, 30° C.
Experimental: The concentration of the solution is 4 μg/mL.
50 μL of the ADAM or Cathepsin D detection solution was added to 50 μL of the sample to provide a reaction solution for wells.

In the case of “Dabcyl-SPLAQAVRSSK (5FAM)-NH2 ({Dabcyl′}-SPLAQAVRSSK(5FAM)-NH2; SMILES CC(C)C[C@H](NC(=O)[C@@H]1CCCN1C(=O)[C@H](CO)NC(=O)c1ccc(/N=N/c2ccc(N(C)C)cc2)cc1)C(=O)N[C@@H](C)C(=O)N[C@@H](CCC(N)=O)C(=O)N[C@@H](C)C(=O)N[C@H](C(=O)N[C@@H](CCCNC(=N)N)C(=O)N[C@@H](CO)C(=O)N[C@@H](CO)C(=O)N[C@@H](CCCCNC(=O)c1ccc2c(c1)C(=O)OC21c2ccc(O)cc2Oc2cc(O)ccc21)C(N)=O)C(C)C) [PEPDAB010]”, the “Fluorescence change after 2 hours of reaction at 30° C.” value [1] is reported as 74,285 ΔRFU, the “Expected value λ (×1)” value ([2]; Example 40, 4 hr) is reported as 0.4984 and the Extracellular vesicle concentration ([2]; Example 40, 4 hr) is reported as 9.968e+09 mL⁻¹. The “Expected value λ (×1)” value ([2]; Example 40, 24 hr) was 0.8509, the Extracellular vesicle concentration ([2]; Example 40, 24 hr) was 1.702e+10 mL⁻¹ and the “Expected value λ” value ([2]; 4 hr) was 0.09968. The Number of positives ([2]; 4 hr) was 2,664, the Positive ratio ([2]; 4 hr) was 0.09487 and the “Expected value λ” value ([2]; 24 hr) was 0.1702. The Number of positives ([2]; 24 hr) was 4,394 and the Positive ratio ([2]; 24 hr) was 0.1565.
